In paper PMC9304929, “The Cholesterol-Binding Sequence in Monomeric C-Reactive Protein Binds to the SARS-CoV-2 Spike Receptor-Binding Domain and Blocks Interaction With Angiotensin-Converting Enzyme 2” (Frontiers in Immunology, 2022):

Test system: SARS-CoV-2 spike RBD
Experiment: Spike RBD-mCRP binding ELISA
Conditions: His-tagged proteins expressed in E. coli, n = 3
Description: The interactions of the spike-RBD with mCRP or CRP were also examined by enzyme-linked immunosorbent assay (ELISA) using mCRP/CRP-specific mAbs. Briefly, 100 μL of spike-RBD (1μg/mL) in Tris-buffered saline (TBS; 10 mM Tris, 140 mM NaCl, pH 7.4) was added per well to coat in 96-well microplates overnight at 4°C. The wells were then washed three times with TBS containing 0.02% Tween-20 for 5 min and blocked with 1% bovine serum albumin (BSA) in TBS for 1 h at 37°C. Next, mCRP was added and the plates were incubated for 1 h at 37°C. The color was developed by adding tetramethyl benzidine (TMB) to the wells and the color development was stopped with 1 M H2SO4.

## WT mCRP
  binding of mCRP wild type or mutants to the spike RBD (ELISA): bound
